Marks after values point to notes of the source that are not given here.
Legend:
[1] = test system: ^125I-IgG (goat anti-mouse); assay: Radiometric determination of IgG binding to surfactant-coated polystyrene microtiter wells; details: for Total IgG binding, Non-Sterilized: coated polystyrene wells; for Total IgG binding, Non-Sterilized / Tight IgG binding, Non-Sterilized: not sterilized; for Total IgG binding, Non-Sterilized / Total IgG binding, Sterilized: after three PBS washes; for Total IgG binding, Sterilized / Tight IgG binding, Sterilized: gamma sterilized (1.5 Mrad); for Tight IgG binding, Sterilized / Tight IgG binding, Non-Sterilized: after two hours in PBS-Tween (0.05%)
Experimental: The hydrophobic surfaces used were flat bottom microtiter plates composed of high binding polystyrene (Corning Costar No. 2581) and medium binding polystyrene (Corning Costar No. 2587). Testing was performed with and without gamma radiation sterilization using cobalt 60 (1.5 Mrad).
The surfactants were applied to the test plates as described in Materials and Methods, followed by sterilization where indicated.
Levels of protein binding were determined using a radiolabeled protein, namely, ^125I-IgG (goat anti-mouse) purchased from DuPont/NEN. Unlabeled IgG in sodium carbonate buffer pH 9.2 was spiked with ^125I-IgG so that the final concentration of labeled IgG and cold IgG in the test solution was 10 μg/mL.
Aliquots of 0.1 milliliters of the protein solution were placed in quadruplicate in the wells of 8-well strips removed from the test microtiter plates. The wells were incubated overnight at 4° C. with shaking. The supernatants were removed from the wells, followed by three washes with 0.2 mL of PBS. The wells were then dried and individually counted to determine “total” IgG binding. After determining “total” binding, the wells were incubated for two hours in 0.2 mL of PBS-Tween (0.05%) at room temperature with shaking. The supernatants were removed from the wells followed by three washes with 0.2 mL of PBS. The wells were dried and individually counted to determine “tight” IgG binding.
Untreated high binding and medium binding plates were used as controls. A comparative experiment was also performed in which a BSA protein coating was used in place of a surfactant coating. The BSA was preabsorbed onto the walls of the wells and then washed to remove excess material. Testing was then performed using the radiolabeled IgG solution as described above.
Radiolabel measurements were performed in a double blind study at BioMolecular Assays (Woburn, Mass.). IgG binding values per microwell were converted to ng/cm^2 values using a surface area of 0.94 cm^2 for a 0.1 mL volume.

HRP-Goat A'Mouse IgG = assay: Enzymatic determination of protein binding to coated medium binding polystyrene plate; details: coated medium binding PS; versus uncoated high binding polystyrene plate; absorbance 405 nm
Experimental: The surfactants were coated onto a medium binding polystyrene plate (Corning Costar No. 2587) as described in Material and Methods. A medium binding polystyrene plate (Corning Costar No. 2587) and a high binding polystyrene plate (Corning Costar No. 2581) were used as controls.
(a) HRP-Goat A'Mouse IgG: Kirkegaard & Perry Laboratories, Inc. Catalog No. 074-1806. Stock solution: 0.5 mg/ml; working concentration: 0.04 μg/ml. The working concentration was obtained by adding 11 μl of the stock solution per 25 mls of PBS pH 7.4 to produce a work stock (WS), and then diluting 1:6 (i.e., 10 mls WS+50 mls PBS pH 7.4).
(1) 100 μl-well of HRP-Goat A'Mouse IgG at a concentration of 0.04 μg/ml were added to the test wells and incubated for 1 hour at room temperature.
(2) The wells were then washed 5 times with the 1M wash solution. Each wash include a 5 minute soak followed by decanting.
(3) 100 μl/well of substrate (30 mls ABTS+30 mls H2O2) were added to the test wells and incubated for 15 minutes at room temperature in the dark.
(4) 100 μl/well of stopping solution (1% SDS) were added to the test wells.
(5) The plates were then shaken and read at 405 nm.
(6) Reduction in binding was determined by comparing the absorbance measured in step (5) with the absorbance measured for a high binding polystyrene plate which had not been treated with a non-ionic surfactant but otherwise subjected to steps (1) to (5).

Horse IgG = assay: Protein binding by colloidal gold staining, coated medium binding polystyrene plates; details: coated medium binding PS; IgG 10 μg/ml, pH 9.4
Experimental: Except where indicated, the non-ionic surfactants were applied to the hydrophobic surfaces being tested as a 0.1% (weight/volume) solution in isopropanol. A sufficient amount of coating solution was used to cover the surface being testing with a thin layer of the solution (e.g., 25 μl of the solution per well for a standard 24-well plate). In some cases, the solution was applied to surface by spraying; in others, it was poured onto the surface (into the well). Except where indicated, coated samples were either dried at 70° C. for 30 minutes in an air circulated oven or dried at room temperature overnight to evaporate the isopropanol.
Protein binding was determined in some examples using a colloidal gold straining procedure. In accordance with this procedure, colloidal gold becomes electrostatically attached to bound protein and is detected by measuring absorbance at 550 nanometers. Bio-Rad Laboratories' Colloidal Gold Total Protein Stain was used for this purpose, with absorbance being measured with a Cambridge Technologies Plate Reader (No. 7520).
The surfactants were coated onto medium binding polystyrene plates (Corning Costar No. 2587) as described in Material and Methods.
The plates were incubated with IgG as follows: 0.1 ml of Horse IgG (Pierce Labs) at a working concentration of 10 μg/ml in 0.10M NaHCO3 buffer (pH9.4) were added to each well, incubated 30 minutes on a rocker table, and rinsed with dI H2O. The plates were gold stained overnight (0.3 ml/well), rinsed in dI H2O, air dried, and absorbance was measured at 550 nm.

[2] = test system: BSA protein (Bovine Serum Albumin, Fraction V); assay: BSA binding to coated polystyrene 24-well plates at different pH, colloidal gold stain; details: for Absorbance (550 nm) pH = 9.2: BSA 10 μg/ml in 0.10 M NaHCO3 buffer; for Absorbance (550 nm) pH = 7.4: BSA 10 μg/ml in 0.10 M PBS; for Absorbance (550 nm) pH = 4.6: BSA 10 μg/ml in 0.10 M acetate buffer
Experimental: Polystyrene plates having 24 wells (Corning Costar #9447) were coated as described in Materials and Methods.
BSA protein (Bovine Serum Albumin, Fraction V, Sigma) was prepared at 10 μg/ml in 0.10 M acetate buffer (pH=4.6), in 0.10 M PBS (pH=7.4), and in 0.10 M NaHCO3 buffer (pH=9.2). Wells of each coated plate, along with uncoated controls, were aliquoted 0.50 ml each of the protein solutions. The samples were run in triplicate.
The plates were placed on a rocker table for 30 minutes at 23° C. The protein solutions were then emptied from the plates, and the wells were rinsed three times with dl H2O. Thereafter, 1.0 ml of colloidal gold stain was added to each well (see Materials and Methods). The plates were placed on a rocker table overnight, rinsed three times with dI H2O, and air dried. Absorbance at 550 nm was then read using the Cambridge Technologies Plate Reader.

MDCK cells [3] = assay: Cytotoxicity of extracts of coated plates; format: cell-based; details: media extract of coated plates (37° C., 48 hours), MDCK 72 hours, Gram Crystal Violet
Experimental: Cytotoxicity experiments were performed using MDCK cells. The non-ionic surfactants tested were Pluronic L-121, L-122, and P-123; Span 80 and 85; and Brij 30, 72 and 93. These molecules were coated onto 24-well plates (Corning Costar #9447) from 0.1% (w/v) in isopropanol. Untreated polystyrene and normal tissue culture treated polystyrene (Corning Costar #25820) 24-well plates were used as controls. All plates were incubated at 37° C. for 48 hours with 2 ml/well of complete DMEM media containing 10% Fetal Bovine Serum (FBS). This incubation was performed in order to extract any potentially toxic compounds from the coated surface into the cell growth serum. The FBS solutions were then transferred to tissue culture treated polystyrene and each well was inoculated with ≈2×10^4 cells/well of MDCK cells, and then incubated at 37° C. for 72 hours in a 5% CO2 atmosphere. Cells were then stained with Gram Crystal Violet.

BSA = assay: Polymer blends molded into petri dishes, BSA binding by colloidal gold
Experimental: (§3) Low binding non-ionic surfactant molecules were blended at 5% (except as noted in Table 13) into a base polymer using a twin screw extruder, then injection molded into the shape of 35 mm petri dishes. Proteins tested were BSA and Fetal Bovine Serum (FBS). Protein binding was determined using a colloidal gold staining procedure as described above. In the case of the polypropylene and EVA blends, a silver enhancer was used (Sigma Chem. Co., St, Louis, Mo., Kit #SE-100).

Fetal Bovine Serum (FBS) = assay: Polymer blends molded into petri dishes, FBS protein binding by colloidal gold
Experimental: as §3

rat = details: cited from earlier work
MDCK cells [4] = assay: MDCK cell attachment to coated polystyrene 24-well plates; format: cell-based; details: coated PS 24-well, gamma sterilized, media with 5% FBS, two days, visual
Experimental: (§1) The procedures used were as follows. Polystyrene 24-well plates were coated with the non-ionic surfactants listed in Table 5 in accordance with the procedures described in Materials and Methods. Uncoated plates were used as a control. For comparison, plates with a covalently attached acrylamide coating (Corning Costar Catalog #2500) and with a stearic acid coating were also tested. The stearic acid coating was applied in the same manner as the non-ionic surfactants again using a 0.1% (w/v) solution.
(§2) The plates were gamma sterilized at 1.5 Mrad and then inoculated with 5.6×10^4 MDCK […] per well in 1 ml of complete media containing 5% FBS (Fetal Bovine Serum). Incubation was carried out at 37° C. in a 5% CO2 atmosphere for two days. The plates were fixed and stained, and cell attachment was noted. Following this, the wells were stained using the colloidal gold technique to detect bound protein. Only visual observations were made.
Experiments were also performed with cells suspended in serum. The cells used in these experiments were MDCK cells. The surfactants used were the same as used in Table 5. Again, reduced binding of the cells to surfaces treated with a non-ionic surfactant was observed.

bound protein = assay: Colloidal gold staining of bound protein after MDCK culture in media containing 5% FBS, visual; details: colloidal gold after cell culture, visual observation
Experimental: as §1, §2

IgG = assay: Coating durability using water washes, IgG binding by colloidal gold; details: for Absorbance (550 nm) Initial: coated polystyrene, no water wash; for Absorbance (550 nm) 1 Time 1 hr 23° C. / Absorbance (550 nm) 1 Time 24 hr 23° C. / Absorbance (550 nm) 1 Time 24 hr 37° C. / Absorbance (550 nm) 1 Time 24 hr 70° C.: dI H2O wash 1 time; for Absorbance (550 nm) 6 Times 30 min each 23° C.: dI H2O wash 6 times
Experimental: Polystyrene plates having 24 wells (Corning Costar #9447) were coated with these surfactants as described in Materials and Methods. Durability was tested by adding dI H2O to the wells of a test plate (3.0 mls/well), following which the plate was placed on a rocker table. […] The protein solution was incubated with the plate on a rocker table for 30 minutes at 23° C., following which the plate was H2O rinse 3× (3 mls each time). The colloidal gold staining procedure described above was used to reveal bound protein. The staining comprised an overnight incubation on a rocker table at 23° C., a dI H2O rinse, drying at room temperature, and reading at 550 nm.

[5] = blended at 5% into polypropylene, silver enhancer

Compound | Total IgG binding, Non-Sterilized [1] | Total IgG binding, Sterilized [1] | Tight IgG binding, Sterilized [1] | Tight IgG binding, Non-Sterilized [1] | % Reduction in Protein Binding (HRP-Goat A'Mouse IgG) | IgG Protein Binding Absorbance (550 nm) (Horse IgG) | Absorbance (550 nm) pH = 9.2 [2] | Absorbance (550 nm) pH = 7.4 [2] | Absorbance (550 nm) pH = 4.6 [2] | cell growth and morphology (MDCK cells [3]) | Bound Protein Absorbance (550 nm) BSA (BSA; [5]) | Bound Protein Absorbance (550 nm) FBS (Fetal Bovine Serum (FBS); [5]) | LD50 (rat) | Absorbance (550 nm) Initial (IgG) | Absorbance (550 nm) 1 Time 1 hr 23° C. (IgG) | Absorbance (550 nm) 1 Time 24 hr 23° C. (IgG) | Absorbance (550 nm) 1 Time 24 hr 37° C. (IgG) | Absorbance (550 nm) 1 Time 24 hr 70° C. (IgG) | Absorbance (550 nm) 6 Times 30 min each 23° C. (IgG) | other results
CCCCCCCCCCCCCCCCCCOCCOCCO [PEO(2) STEARYL ETHER] | 83 ng/cm^2 | 36 ng/cm^2 | 17 ng/cm^2 | 28 ng/cm^2 | 97.9% | 0.00 | 0.00 | 0.00 | 0.00 | confluent cell growth with normal cell morphology | 0.000 | 0.000 | >25 grams/Kg | – | – | – | – | – | – | BSA or FBS protein binding (BSA; blend in polypropylene or EVA): no detectable; Bound Protein Absorbance (550 nm) BSA (BSA; blended at 5% into polystyrene): 0.008; Bound Protein Absorbance (550 nm) FBS (Fetal Bovine Serum (FBS); blended at 5% into polystyrene): 0.009
CCCCCCCCCCCCCCCCCC(=O)OCCOCCOCCOCCOCCOCCOCCOCCO [PEO(8) STEARATE] | 6 ng/cm^2 | 15 ng/cm^2 | 9 ng/cm^2 | 3 ng/cm^2 | 99.1% | 0.00 | 0.00 | 0.00 | 0.00 | – | – | – | >31 grams/Kg | – | – | – | – | – | – | –
SORBITOL MONO-PALMITATE | – | – | – | – | 88.9* % | 0.00 | 0.00 | 0.00 | 0.00 | – | – | – | – | 0.00 | 0.00 | 0.00 | 0.00 | 0.00 | 0.02-0.06 | MDCK Attachment (MDCK cells [4]): None; Visual Color Upon Protein Staining (bound protein): None
SORBITOL TRI-OLEATE | – | – | – | – | – | – | – | – | – | confluent cell growth with normal cell morphology | 0.000 | 0.000 | – | 0.00 | 0.00 | 0.00 | 0.00 | 0.00 | 0.00 | –
